# Measured values published in patent publication US8686003B2, “Tissue non-specific alkaline phosphatase inhibitors and uses thereof for treating vascular calcification” (Sanford-Burnham Medical Research Institute, priority 2007, dated 2014).
# Molecular target: T1, human TNAP (Homo sapiens, UniProt P05186)
# T1 construct: made in house; host or cells: COS-1 cells, transient expression; dialyzed serum-free conditioned medium
# T1 sequence (P05186 18-502 limits assumed): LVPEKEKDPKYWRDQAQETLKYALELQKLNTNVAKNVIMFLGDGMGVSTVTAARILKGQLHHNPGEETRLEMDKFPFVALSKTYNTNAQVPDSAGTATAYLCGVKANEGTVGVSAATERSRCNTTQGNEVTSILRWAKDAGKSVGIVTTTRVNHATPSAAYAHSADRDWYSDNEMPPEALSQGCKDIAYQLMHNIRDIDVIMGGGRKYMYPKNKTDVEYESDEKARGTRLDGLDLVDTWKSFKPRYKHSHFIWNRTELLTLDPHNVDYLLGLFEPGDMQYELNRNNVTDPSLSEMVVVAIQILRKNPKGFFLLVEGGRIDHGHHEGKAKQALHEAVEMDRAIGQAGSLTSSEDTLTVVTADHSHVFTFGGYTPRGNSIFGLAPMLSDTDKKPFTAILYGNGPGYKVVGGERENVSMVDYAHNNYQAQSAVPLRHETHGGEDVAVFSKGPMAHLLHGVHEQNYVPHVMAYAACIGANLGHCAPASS
# Test: Enzyme kinetic experiments, Ki and mechanism of TNAP inhibition
# Assay type: biochemical
# Conditions: Tables D and E; pH not given; read-out: Ki
# Description: (§1) Expression plasmids containing a secreted epitope-tagged TNAP, PLAP and IAP were transfected into COS-1 cells for transient expression using a standard electroporation method. Medium was replaced to Opti-MEM 24 hours later, and the serum free media containing secreted proteins were collected 60 hours after electroporation. Conditioned medium was dialyzed against TBS containing 1 mM MgCl2 ad 20 μM ZnCl2 (to remove phosphate) and filtrated with a 2 μm cellulose acetate filter.
# […] TNAP, PLAP and IAP activities were adjusted to an approximate ΔA405 nm, equivalent to 1, measured after 30 min. Residual AP activity in the presence of inhibitors was expressed as percentage of the control activity. To investigate the mechanism of inhibition, double reciprocal plots of enzyme activity (expressed as mA405 nm min^−1) vs. substrate concentration were constructed, in the presence of various concentrations of added inhibitors (0-30 μM). The y-axis intercepts of the 1/v vs. 1/[S] plots, were then plotted vs. [I] to graphically extract Ki values as the x-intercept in this plot. […] Inhibitors were further tested and sorted based on their kinetic properties at pH 7.4 using PPi, the relevant natural substrate of TNAP. […] Amounts of released phosphate were measured using the Biomol Green Reagent (Biomol Research Laboratories, Inc., Plymouth Meeting, Pa.).
row,Ki,SMILES
1,5.6 µM,Cn1ccnc1Sc1nc(Nc2ccccc2)nc(Nc2ccccc2)n1 [Compound E1]

# Molecular target: T2, tissue-nonspecific alkaline phosphatase (TNAP) (Homo sapiens, UniProt P05186)
# T2 construct: made in house; host or cells: COS-1 cells, transient expression; dialyzed serum-free conditioned medium
# T2 sequence (P05186 18-502 limits assumed): T1 sequence (P05186 18-502 limits assumed)
# Test: TNAP inhibition screening assay (colorimetric pNPP / luminescence CDP-star), IC50
# Assay type: biochemical
# Conditions: Tables A-H; tissue-nonspecific alkaline phosphatase inhibitors
# Description: as §1
# A TNAP stock solution was diluted 120-fold and about 12 ul of diluted TNAP solution were dispensed into 96 well microtiter plates with half area bottom (Costar, Corning, N.Y.) by an auto dispenser (Matrix, Hudson, N.H.). A robotic liquid handler, Biomek™ FX (Beckman Coulter, Fullerton, Calif.) dispensed about 2.5 μl of each compound (dissolved in 10% DMSO) from the library plates. Plates were incubated at room temperature for at least one hour to allow TNAP to interact with each compound prior to addition of about 10.5 μl substrate solution (1.19 mM pNPP). After about 30 minutes of incubation, A405 nm was measured with a microtiter plate reader, Analyst™ HT (Molecular Devices, Sunnyvale, Calif.). Both the enzyme (TNAP) and substrate (pNPP) solution were made in diethanolamine (DEA) buffers; the final reaction contains 1M DEA-HCl buffer, pH about 9.8, containing about 1 mM MgCl2 and about 20 μM ZnCl2.
# Compound aliquots (4 uL @ 100 uM in 10% DMSO) were added with about 8 uL of TNAP working solution, prepared by 800-fold dilution of TNAP in 2.5-fold assay buffer (250 mM DEA, pH 9.8, 2.5 mM MgCl2, 0.05 mM ZnCl2). CDP-star substrate solution (about 8 uL of 125 uM in water) was added to each well. […] Plates (white 384-well small volume Greiner 784075) were incubated at room temperature for about 0.5 hour and luminescence signal was measured using an EnVision plate reader (PerkinElmer).
row,IC50,SMILES
1,0.68 µM,"O=C(O)c1cc(-c2ccccc2Cl)n[nH]1 [Compound A1, 3-(2-chlorophenyl)-1H-pyrazole-5-carboxylic acid]"
2,0.81 µM,"COC(=O)c1cc(-c2c[nH]c3ccccc23)[nH]n1 [Compound A2, methyl 3-(1H-indol-3-yl)-1H-pyrazole-5-carboxylate]"
3,0.95 µM,"O=C(O)c1cc(-c2ccc(Cl)cc2)n[nH]1 [Compound A3, 3-(4-chlorophenyl)-1H-pyrazole-5-carboxylic acid]"
4,0.97 µM,"COC(=O)c1cc(-c2ccccc2)n[nH]1 [Compound A4, methyl 3-phenyl-1H-pyrazole-5-carboxylate]"
5,3.24 µM,"Oc1cc(-c2cccc3ccccc23)n[nH]1 [Compound A5, 3-(napthalen-1-yl)-1H-pyrazol-5-ol]"
6,6.51 µM,"Nc1[nH]nc(-c2ccc(Br)cc2)c1Cl [Compound A6, 3-(4-bromophenyl)-4-chloro-1-H-pyrazol-5-amine]"
7,10.2 µM,"Cn1cccc1-c1cc(C(=O)O)[nH]n1 [Compound A7, 3-(1-methyl-1H-pyrrol-2-yl)-1H-pyrazole-5-carboxylate]"
8,0.31 µM,"COC(=O)c1cc(-c2ccc(Br)cc2)n[nH]1 [Compound A8, methyl 3-(4-bromophenyl)-1H-pyrazole-5-carboxylate]"
9,1.51 µM,"CCCCc1[nH]nc2c1C(=O)CC(C)(C)C2 [Compound B1, 3-butyl-6,6-dimethyl-6,7-dihydro-2H-indazol-4(5H)-one]"
10,3.67 µM,"CC1(C)CC(=O)c2c(n[nH]c2-c2cccs2)C1 [Compound B2, 6,6-dimethyl-3-(thiophen-2-yl)-6,7-dihydro-2H-indazol-4(5H)-one]"
11,0.57 µM,"CC1(C)CC(=O)c2c(n[nH]c2Cc2ccccc2)C1 [Compound B3, 3-benzyl-6,6-dimethyl-6,7-dihydro-2H-indazol-4(5H)-one]"
12,0.99 µM,"Cc1cc(O)oc2nnc(-c3ccccc3)c1-2 [Compound B4, 4-methyl-3-phenylpyrano[2,3-c]pyrazol-6-ol]"
13,1.35 µM,"COc1ccc(-c2nnc3oc(O)cc(C)c2-3)cc1 [Compound B5, 3-(4-methoxyphenyl)-4-methylpyrano[2,3-c]pyrazol-6-ol]"
14,5.25 µM,"COCc1n[nH]c2c1C(c1cc(OC)c(O)c(OC)c1)C(C#N)=C(N)O2 (stereo not shown) [Compound B6, 6-amino-4-(4-hydroxy-3,5-dimethoxyphenyl)-3-(methoxymethyl)-1,4-dihydropyrano[2,3-c]pyrazole-5-carbonitrile]"
15,9.43 µM,"Cc1cc(NC(=O)COC(=O)c2[nH]nc3ccccc23)no1 [Compound B8, 2-(5-methylisoxazol-3-ylamino)-2-oxoethyl 2H-indazole-3-carboxylate]"
16,0.32 µM,"COc1ccc2c(c1)CCc1c-2n[nH]c1C(=O)O [Compound B9, 7-methoxy-4,5-dihydro-2H-benzo [g]indazole-3-carboxylic acid]"
17,1.35 µM,"O=C(O)c1[nH]nc2c1COc1ccccc1-2 [Compound B10, 2,4-dihydrochromeno[4,3-c]pyrazole-3-carboxylic acid]"
18,3.4 µM,"c1ccc(-c2n[nH]c3c2CCC3)cc1 [Compound B11, 3-phenyl-1,4,5,6-tetrahydrocyclopenta[c]pyrazole]"
19,2.02 µM,"Nc1nc(CSc2n[nH]c(-c3ccccc3)n2)nc(Nc2ccccc2)n1 [Compound C1, N^2-phenyl-6-[(5-phenyl-1H-1,2,4-triazol-3-ylthio)methyl]-1,3,5-triazine-2,4-diamine]"
20,3.79 µM,"COc1ccccc1-c1nnc(SCc2ccccn2)[nH]1 [Compound C2, 2-((5-(2-methoxyphenyl)-4H-1,2,4-triazol-3-ylthio)methyl)pyridine]"
21,5.39 µM,"CCOC(=O)c1sc(NC(=O)CSc2nnc(-c3ccccc3OC)[nH]2)c(C#N)c1C [Compound C3, ethyl 4-cyano-5-{2-[5-(2-methoxyphenyl)-4H-1,2,4-triazol-3-ylthio]acetamide}-3-methylthiophene-2-carboxylate]"
22,2.54 µM,"O=C(CSc1nnc(-c2ccccc2Br)[nH]1)NC(=O)NCc1ccco1 [Compound C4, 2-[5-(2-bromophenyl)-4H-1,2,4-triazol-3-ylthio]-N-(furan-2-ylmethylcarbamoyl)acetamide]"
23,1.57 µM,"O=C(CSc1nnc(-c2ccccc2)[nH]1)NC(=O)NCc1ccco1 [Compound C5, N-(furan-2-ylmethylcarbamoyl)-2-(5-phenyl-4H-1,2,4-triazol-3-ylthio)acetamide]"
24,0.33 µM,O=C1C2CC=CCC2C(=O)N1c1nnc(Cc2ccccc2)[nH]1 (stereo not shown) [Compound E2]
25,0.68 µM,CCCSc1nnc(NC(C)=O)[nH]1 [Compound E3]

row,IC50,SMILES
1,1.06 µM,[H]/N=C(C)\C(C#N)=C(\O)CSc1nnc(-c2ccccc2Br)[nH]1 [Compound E4]
2,1.99 µM,COc1ccccc1-c1nnc(NC(C)=O)[nH]1 [Compound E5]
3,1.99 µM,COc1cc(CSc2nnc[nH]2)c(OC)cc1CSc1nnc[nH]1 [Compound E6]
4,2.39 µM,COc1cc(C(=O)Nc2cc(-c3ccccc3)n[nH]2)cc(OC)c1OC [Compound E7]
5,2.47 µM,Clc1ccccc1-c1n[nH]c(-c2ccccc2)n1 [Compound E8]
6,3.82 µM,COc1ccc(-c2nc3n(n2)C(=O)CC(c2ccco2)S3)cc1 (stereo not shown) [Compound E9]
7,3.94 µM,CCOC(=O)C1C(=O)Nc2nc3ccccc3n2C1C(C)C (stereo not shown) [Compound E10]
8,4.35 µM,C=CCSc1nc(-c2ccc(OC)cc2)n[nH]1 [Compound E11]
9,4.68 µM,COc1ccc(OC)c(C(=O)CSc2nc3ccc[nH]c-3n2)c1 [Compound E12]
10,5.34 µM,Oc1nc2cc(Cl)ccc2n1-c1ccccc1 [Compound E13]
11,5.83 µM,Cn1ncc2c1ncn1c(-c3ccccc3Cl)nnc21 [Compound E14]
12,6.26 µM,O=C(CSc1nc2ccc[nH]c-2n1)c1ccc(F)cc1 [Compound E15]
13,6.89 µM,Cc1cccc(C)c1OCc1nnc2c3cnn(C)c3ncn12 [Compound E16]
14,7.92 µM,Cc1ccc(-n2ccc3c2ncn2c(C)nnc32)cc1C [Compound E17]
15,10.3 µM,CC(C)C1N=C2c3ccccc3N=C(SCC(=O)c3ccc(O)c(O)c3)N2C1=O (stereo not shown) [Compound E18]
16,11.3 µM,Cc1ccsc1/C=c1\sc2ncnn2c1=O [Compound E19]
17,13 µM,Cc1nc2c3cnn(-c4ccc(C)c(C)c4)c3ncn2n1 [Compound E20]
18,16 µM,Cn1ncc2c1ncn1nc(CCc3ccccc3)nc21 [Compound E21]
19,9.5 µM,CC1(C)Cc2c(sc3cc4n(c(=N)c23)CCCCC4)CO1 [Compound E22]
20,0.75 µM,COc1ccc(C)cc1S(=O)(=O)Nc1cccnc1 [Compound F2]
21,1.93 µM,CCOc1ccc(C)cc1S(=O)(=O)Nc1cccnc1 [Compound F3]
22,8.45 µM,COc1ccc(OC)c(S(=O)(=O)Nc2ccc(O)c(Sc3nc[nH]n3)c2)c1 [Compound F4]
23,1.66 µM,O=P(O)(O)c1ccccc1OCCOCCOc1ccccc1P(=O)(O)O [Compound G1]
24,2.05 µM,O=P(O)(O)c1ccccc1OCCCCCOc1ccccc1P(=O)(O)O [Compound G2]
25,4.66 µM,O=C(CCCn1c(SCC(=O)c2ccc(O)c(O)c2)nc2ccccc2c1=O)NCC1CCCO1 (stereo not shown) [Compound H1]

row,SMILES,IC50
1,N#C/C(=C\c1ccc(O)c(O)c1)C(=O)NCCCc1ccccc1 [Compound H2],5.16 µM
